From ChEMBL document CHEMBL1137593, “Identification and optimisation of a series of substituted 5-pyridin-2-yl-thiophene-2-hydroxamic acids as potent histone deacetylase (HDAC) inhibitors” (Bioorg Med Chem Lett, 2007) come the findings set out here.

Usually Papp stands for a coefficient for how fast a substance crosses the barrier. Low values mean poor permeation, high ones ready permeation. As usually defined, the inhibition is the percentage by which the read-out fell short of the control. By pIC50 is commonly meant −log10 of the IC50, conventionally taken in molar units. By half-life is commonly meant the time in which the quantity being followed falls by half. A higher half-life goes with slow decline. The term clearance denotes the volume of plasma or blood freed of the substance per unit of time. Low values mean a low capacity for elimination, high ones a high capacity for elimination. The AUC is the area under the concentration-time curve, a measure of exposure. Higher therefore signals more exposure. The bioavailability is the share of a dose that reaches the circulation, judged against a reference dose that is usually intravenous. Read a low bioavailability as little systemic uptake.

A short description of series [1]: Permeability (Papp) run from pH 6.5-7.4. Particulars: human, Caco-2, pH 6.5. It is filed as ADME, cell-based.
The nature of series [2]: Microsome stability: percent compound remaining. It is filed as ADME. The note with it: microsomes.
Series [3] in a line: Hepatocyte stability. It is filed as ADME, cell-based. Particulars: hepatocytes.
For another series, the target named is CYP2D6 (Homo sapiens, UniProt P10635). Description: Percent inhibition of CYP450 2D6 at 1uM concentration. The series is classed as ADME.
Sequence of CYP2D6 (P10635 whole entry): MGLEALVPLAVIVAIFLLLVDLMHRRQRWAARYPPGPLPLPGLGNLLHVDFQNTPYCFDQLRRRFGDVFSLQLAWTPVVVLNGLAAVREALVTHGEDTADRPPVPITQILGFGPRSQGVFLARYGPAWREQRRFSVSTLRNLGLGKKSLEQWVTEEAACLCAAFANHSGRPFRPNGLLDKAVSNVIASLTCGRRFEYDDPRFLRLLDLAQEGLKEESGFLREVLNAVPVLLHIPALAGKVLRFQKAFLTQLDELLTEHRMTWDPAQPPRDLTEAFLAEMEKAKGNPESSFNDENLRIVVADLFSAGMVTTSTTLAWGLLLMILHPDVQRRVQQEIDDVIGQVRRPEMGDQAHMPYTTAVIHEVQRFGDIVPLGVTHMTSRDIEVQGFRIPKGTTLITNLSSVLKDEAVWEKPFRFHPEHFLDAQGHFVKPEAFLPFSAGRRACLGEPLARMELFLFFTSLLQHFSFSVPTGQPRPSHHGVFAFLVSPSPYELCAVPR
The next series deals with Cytochrome P450 3A4 (Homo sapiens, UniProt P08684). Description: Inhibition of CYP450 3A4. It is filed as ADME.
Sequence of Cytochrome P450 3A4 (P08684 whole entry): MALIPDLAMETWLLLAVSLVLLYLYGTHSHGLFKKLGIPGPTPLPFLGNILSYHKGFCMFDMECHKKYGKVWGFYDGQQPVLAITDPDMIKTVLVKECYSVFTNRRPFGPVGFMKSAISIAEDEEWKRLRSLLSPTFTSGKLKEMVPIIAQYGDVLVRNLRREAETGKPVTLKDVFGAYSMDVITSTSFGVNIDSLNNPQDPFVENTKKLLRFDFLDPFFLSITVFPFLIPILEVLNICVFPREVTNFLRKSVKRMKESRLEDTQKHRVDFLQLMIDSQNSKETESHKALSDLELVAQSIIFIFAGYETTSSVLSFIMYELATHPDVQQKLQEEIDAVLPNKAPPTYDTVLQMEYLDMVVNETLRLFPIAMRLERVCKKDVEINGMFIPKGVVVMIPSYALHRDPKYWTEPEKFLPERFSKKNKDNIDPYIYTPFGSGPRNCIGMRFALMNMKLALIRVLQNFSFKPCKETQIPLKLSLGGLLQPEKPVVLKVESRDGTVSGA
The target of the next series is T1, CYP1A2 (Homo sapiens, UniProt P05177).
T1 sequence (P05177 whole entry): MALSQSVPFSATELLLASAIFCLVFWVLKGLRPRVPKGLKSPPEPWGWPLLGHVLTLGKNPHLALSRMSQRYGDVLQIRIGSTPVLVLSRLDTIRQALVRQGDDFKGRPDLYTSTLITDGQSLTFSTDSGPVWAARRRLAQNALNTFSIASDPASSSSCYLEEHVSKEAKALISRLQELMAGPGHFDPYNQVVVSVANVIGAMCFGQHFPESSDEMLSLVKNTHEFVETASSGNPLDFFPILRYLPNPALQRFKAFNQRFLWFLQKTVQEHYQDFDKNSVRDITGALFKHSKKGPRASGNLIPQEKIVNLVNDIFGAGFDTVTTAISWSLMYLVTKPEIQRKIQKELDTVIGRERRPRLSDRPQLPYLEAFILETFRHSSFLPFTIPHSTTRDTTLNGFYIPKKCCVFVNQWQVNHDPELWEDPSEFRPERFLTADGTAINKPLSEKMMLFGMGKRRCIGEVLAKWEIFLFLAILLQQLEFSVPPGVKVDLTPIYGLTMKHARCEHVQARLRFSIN
The series is described as follows: Percent inhibition of CYP450 1A2 at 1 uM concentration. It is filed as ADME.

Another series addresses CYP2C9 (Homo sapiens, UniProt P11712). Description: Percent inhibition of CYP450 2C9 at 1 uM concentration. It is filed as ADME.
Another series addresses CYP2C19 (Homo sapiens, UniProt P33261). The series is described as follows: Percent inhibition of CYP450 2C19 at 1 uM concentration. The series is classed as ADME.
Series [4] in a line: Half life after i.v. dosing at 1 mg kg-1. The arrangement: dose 1 mg kg-1, route intravenous. Particulars: in vivo, iv. It is filed as ADME, organism-based.
Series [5] in a line: Steady state volume of distribution (Vdss) after i.v. dosing at 1 mg kg-1. It is filed as ADME, organism-based. On the set-up: dose 1 mg kg-1, route intravenous. Particulars: in vivo, iv, read-out: Vdss.
A short description of series [6]: (§1) Clearance after i.v. dosing at 1 mg kg-1. The series is classed as ADME, organism-based. On the set-up: dose 1 mg kg-1, route intravenous. Particulars: rat, in vivo, iv.
The test system of series [7] is Mus musculus. The description is as §1. On the set-up: dose 1 mg kg-1, route intravenous. It is filed as ADME, organism-based. Particulars: in vivo, iv.
Series [8] deals with Mus musculus. Description: (§2) AUC after oral dosing at 5 mg kg-1. The arrangement: dose 5 mg kg-1, route oral. It is filed as ADME, organism-based, Plasma. The note with it: in vivo.
Series [9] in a line: AUC after i.p. dosing at 5 mg kg-1. On the set-up: dose 5 mg kg-1, route intraperitoneal. The note with it: mouse, plasma, ip. The series is classed as ADME, organism-based.
A short description of series [10]: (§3) Oral bioavailability after oral dosing at 5 mg kg-1. Particulars: rat, in vivo. The series is classed as ADME, organism-based.
In series [11] the test system is Mus musculus. The series is described as §3. The note with it: in vivo. It is filed as ADME, organism-based.
Series [12] can be described thus: Bioavailability after i.p. dosing at 5 mg kg-1. It is filed as ADME, organism-based. Particulars: mouse, in vivo, ip.
Series [13] is described as follows: as §2. The note with it: rat, plasma. On the set-up: dose 5 mg kg-1, route oral. The series is classed as ADME, organism-based.

SMILES strings stand for the structures. pIC50: −log10 of the molar value.

Sequence of CYP2C19 (P33261 whole entry): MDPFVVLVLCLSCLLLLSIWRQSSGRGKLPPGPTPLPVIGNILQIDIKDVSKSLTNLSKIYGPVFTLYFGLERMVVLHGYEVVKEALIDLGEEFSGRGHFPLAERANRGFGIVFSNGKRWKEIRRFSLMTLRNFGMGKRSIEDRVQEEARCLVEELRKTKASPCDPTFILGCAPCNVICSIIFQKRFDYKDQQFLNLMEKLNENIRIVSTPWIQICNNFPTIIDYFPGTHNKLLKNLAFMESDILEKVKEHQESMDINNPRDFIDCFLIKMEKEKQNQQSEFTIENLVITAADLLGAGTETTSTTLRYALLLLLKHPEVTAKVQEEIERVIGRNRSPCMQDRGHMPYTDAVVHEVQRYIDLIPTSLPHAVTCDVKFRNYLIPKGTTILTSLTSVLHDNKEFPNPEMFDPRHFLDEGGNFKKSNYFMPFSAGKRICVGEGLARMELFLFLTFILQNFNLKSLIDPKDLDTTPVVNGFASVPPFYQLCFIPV
Sequence of CYP2C9 (P11712 whole entry): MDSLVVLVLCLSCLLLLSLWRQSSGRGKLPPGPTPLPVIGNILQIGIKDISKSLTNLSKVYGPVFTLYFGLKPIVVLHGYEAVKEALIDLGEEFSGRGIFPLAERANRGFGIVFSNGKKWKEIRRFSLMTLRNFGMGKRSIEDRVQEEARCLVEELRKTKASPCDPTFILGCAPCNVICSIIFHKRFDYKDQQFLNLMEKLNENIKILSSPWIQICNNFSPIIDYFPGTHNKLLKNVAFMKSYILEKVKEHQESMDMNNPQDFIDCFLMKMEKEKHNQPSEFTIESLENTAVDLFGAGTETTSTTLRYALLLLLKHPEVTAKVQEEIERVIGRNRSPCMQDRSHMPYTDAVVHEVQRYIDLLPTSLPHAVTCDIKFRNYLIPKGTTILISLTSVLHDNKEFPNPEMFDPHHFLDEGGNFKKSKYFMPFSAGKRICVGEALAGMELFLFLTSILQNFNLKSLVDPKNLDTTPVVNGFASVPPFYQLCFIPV

As for `O=C(NO)c1ccc(-c2ccn(CCNCc3ccc4c(c3)OCO4)n2)s1`, the Papp in series [1] stood at 4.2 ×10⁻⁶ cm/s. The Percent remaining turned out to be 55% in series [2] (human) and 5% in [2] (mouse). For the same molecule, the Hepatocyte stability was determined as 15 uL/min/10e6 cells in series [3] (human) and 26 uL/min/10e6 cells in series [3] (rat). Further, the inhibition at 1 µM on CYP2D6 was 8%; on CYP1A2, 9%; against CYP2C9, 0%; at CYP2C19, 71%. For the same molecule, the pIC50 on Cytochrome P450 3A4 is 4.28. The half-life in series [4] (mouse) was 2.5 h; in series [4] (rat), 1.6 h. For the same molecule, the Vd in series [5] (mouse) was found to be 0.4 L/kg; in series [5] (rat) it was 0.9 L/kg. The same molecule showed a clearance in [6] of 21 mL/min/kg. The CL in the series with Mus musculus [7] stood at 10 mL/min/kg. Also, the exposure (AUC) with Mus musculus [8] was 900 ng·h/mL; in series [9], 7200 ng·h/mL; in [13] it was 100 ng·h/mL. Besides, the results for the bioavailability in series [10] and in series [12] were 2% and 85%, respectively. Further, the F in the series with Mus musculus [11] was 1%.
